Assay results: US20230189821A1, “PESTICIDAL COMPOSITIONS WITH ENHANCED PHYSICAL CHARACTERISTICS” (Terramera, Inc., priority 2020, published 2023)

Assay: Melting point of oil/aliphatic acid mixtures by differential scanning calorimeter (DSC)
Format: physicochemical
Protocol: Eleven exemplary pesticidal compositions, each comprising a different mixture ratio of neem oil and octanoic acid, were prepared according to the following description. Each composition comprised a combined 10-20 mg of cold-pressed neem oil and octanoic acid. The neem oil and octanoic acid were passively mixed by commingling in liquid phase in the testing vessel (an aluminum pan with an aluminum cap) at a temperature above each ingredient's melting point. Mixture ratios were determined by weight—e.g. a 10 mg mixture in 60:40 ratio would comprise 6 mg of neem oil and 4 mg of octanoic acid. The mixture's melting point was then measured by a differential scanning calorimeter (DSC), and particularly by a TA Instruments® DSC Q2000™ differential scanning calorimeter. The following method was used for DSC measurement of each mixture: the mixture was equilibrated at 40° C., then isothermally held for 15 minutes, then equilibrated at −30° C., and then ramped at 5° C./minute to 70° C. […]
(§1) Eleven exemplary pesticidal compositions, each comprising a different mixture ratio of palm oil and octanoic acid, were prepared according to the following description. […] Mixture ratios were determined by weight—e.g. a 10 mg mixture in 60:40 ratio would comprise 6 mg of palm oil and 4 mg of octanoic acid. The mixture's melting point was then measured by differential scanning calorimeter. […]
as §1, with “coconut” for “palm”
as §1, with “karanja” for “palm”, “acid.” for “acid. The mixture's melting point was then measured by differential scanning calorimeter.”

Melting Point | SMILES
about 11.36 °C | CCCCCCCCCC(=O)O [decanoic acid]
about 11.31 °C | CCCCCCCC/C=C\CCCCCCCC(=O)O [oleic acid]
about 11.36 °C | CC/C=C/CC(=O)O [trans-3 hexenoic acid]
